# Where a name gives a salt, the structure may show the parent alone.
# What was measured:
# [1] = target: T1, human M1 receptor (hCHRM1) (Homo sapiens, UniProt P11229); test: Measurement of M1 receptor positive allosteric modulator (M1PAM) activity, Ca2+ fluorescence by FDSS/μ cell (Experimental Example 2); format: cell-based; details: for activity (%) at 10 μM: 10 μM test compound, 100% = acetylcholine 1 μM, 0% = DMSO; for EC50: inflection point of concentration-dependent curve, in presence of acetylcholine at EC20 (0.8-1.0 nM), CHO-K1 cells expressing hCHRM1, read-out: IP value
# T1 construct: expressed in transfected cells
# T1 sequence (P11229 1-460): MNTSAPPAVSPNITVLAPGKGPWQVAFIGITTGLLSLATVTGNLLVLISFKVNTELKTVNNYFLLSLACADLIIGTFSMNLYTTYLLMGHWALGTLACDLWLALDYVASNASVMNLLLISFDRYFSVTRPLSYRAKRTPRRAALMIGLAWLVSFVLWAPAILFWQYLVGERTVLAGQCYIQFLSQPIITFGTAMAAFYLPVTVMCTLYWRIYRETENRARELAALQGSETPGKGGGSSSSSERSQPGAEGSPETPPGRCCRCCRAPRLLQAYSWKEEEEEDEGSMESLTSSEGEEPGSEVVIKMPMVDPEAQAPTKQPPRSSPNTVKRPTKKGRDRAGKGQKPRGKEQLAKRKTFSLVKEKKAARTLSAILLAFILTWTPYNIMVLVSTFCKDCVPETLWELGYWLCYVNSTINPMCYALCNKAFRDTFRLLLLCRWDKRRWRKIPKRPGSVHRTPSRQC
# Protocol: Measurement of M1 Receptor Positive Allosteric Modulator (M1PAM) Activity
# The activity of a test compound in the presence of acetylcholine at EC20 concentration (final concentration 0.8-1.0 nM), which affords an action corresponding to about 20% of the maximum activity, was measured as PAM activity. The method is as follows. CHO-K1 cells stably expressing a human M1 receptor (hCHRM1) were plated on a 384-well black clear bottom plate (BD Falcon) at 5,000 cells/well, and cultured in an incubator at 37° C., 5% CO2 for 1 day. The medium in the cell plate was removed, and a dye solution (prepared by adding Recording medium (DOJINDO LABORATORIES) to a final concentration of 1×concentration, Fluo-4 AM (DOJINDO LABORATORIES) to a final concentration of 2.5 μg/mL, Pluronic F127 (DOJINDO LABORATORIES) to a final concentration of 0.08%, and probenecid (DOJINDO LABORATORIES) to a final concentration of 1.25 mM to assay buffer (HBSS (Invitrogen), 20 mM HEPES (Invitrogen), 0.1% BSA (Wako Pure Chemical Industries, Ltd.))) was added at 30 μL/well. The cells were left standing in the incubator at 37° C., 5% CO2 for 30 min, and further left standing at room temperature for 30 min. A test compound prepared by diluting with assay buffer containing 3.2-4.0 nM acetylcholine was added at 10 μL/well, and the fluorescence was measured by FDSS/μ cell (Hamamatsu Photonics K.K.) for 1 min every 1 second. With the definition that the amount of change in the fluorescence on addition of acetylcholine (final concentration 1 μM) is 100% and that on addition of DMSO instead of a test compound is 0%, the activity (%) of the test compound was calculated, and the inflection point in the concentration-dependent curve of the test compound was calculated as IP values.
# [2] = target: T1, human M1 receptor (hCHRM1); test: Measurement of M1 receptor positive allosteric modulator (M1PAM) activity, Ca2+ fluorescence by FLIPRtetra (Experimental Example 1); format: cell-based; details: for activity (%) at 10 μM: 10 μM test compound, 100% = acetylcholine 1 μM, 0% = DMSO; for EC50: inflection point of concentration-dependent curve, in presence of acetylcholine at EC20 (0.8-1.0 nM), CHO-K1 cells expressing hCHRM1, read-out: IP value
# In short: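 CHO-K1 cells stably expressing hCHRM1, loaded with Fluo-4 AM (probenecid), received compound with acetylcholine at EC20 (final 0.8-1.0 nM); Ca2+ fluorescence read 1 min by FLIPRtetra. Activity scaled 0% (DMSO) to 100% (1 μM acetylcholine); IP from inflection point of concentration curve.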
Structure (SMILES),activity (%) at 10 μM [1],EC50 [1],activity (%) at 10 μM [2],EC50 [2],activity (%) at 10 μM ([2]; monohydrochloride)
"Cc1c(Cc2ccc(-n3cccn3)nc2)cc2c(c1Cl)OCN([C@H]1CCC[C@@H]1O)C2=O (single isomer, unassigned) [Example 97, 8-chloro-3-(trans-2-hydroxycyclopentyl)-7-methyl-6-((6-(1H-pyrazol-1-yl)pyridin-3-yl)methyl)-2,3-dihydro-4H-1,3-benzoxazin-4-one (optical isomer: longer retention time)]",99%,–,–,–,–
"C=Cc1ccc(Cc2cc3c(c(C)c2C)OCN([C@H]2COCC[C@@H]2O)C3=O)cn1 [Example 110, 1,5-anhydro-2,4-dideoxy-2-(7,8-dimethyl-4-oxo-6-((6-vinylpyridine-3-yl)methyl)-2H-1,3-benzoxazin-3(4H)-yl)-L-threo-pentitol]",99%,4.8 nM,–,–,–
"Cc1c(Cc2ccc3nn(C)cc3c2)cc2c(c1C)OCN([C@H]1COCC[C@@H]1O)C2=O [Example 116, 1,5-anhydro-2,4-dideoxy-2-(7,8-dimethyl-6-((2-methyl-2H-indazol-5-yl)methyl)-4-oxo-2H-1,3-benzoxazin-3(4H)-yl)-L-threo-pentitol]",96%,7 nM,–,–,–
"Cc1c(Cc2ccc(C#C[Si](C)(C)C)nc2)cc2c(c1C)OCN([C@H]1COCC[C@@H]1O)C2=O [Example 111, 1,5-anhydro-2,4-dideoxy-2-(7,8-dimethyl-4-oxo-6-((6-((trimethylsilyl)ethynyl)pyridin-3-yl)methyl)-2H-1,3-benzoxazin-3(4H)-yl)-L-threo-pentitol]",96%,68 nM,–,–,–
"Cc1c(Cc2ccc(-c3ccnc(F)c3)nc2)cc2c(c1F)OCN([C@H]1CCC[C@@H]1O)C2=O [Example 89, 8-fluoro-6-((2′-fluoro-2,4′-bipyridin-5-yl)methyl)-3-((1S,2S)-2-hydroxycyclopentyl)-7-methyl-2,3-dihydro-4H-1,3-benzoxazin-4-one]",102%,12 nM,–,–,–
"CCn1ccc(-c2ccc(Cc3cc4c(c(F)c3C)OCN([C@H]3CCC[C@@H]3O)C4=O)cn2)n1 [Example 91, 6-((6-(1-ethyl-1H-pyrazol-3-yl)pyridin-3-yl)methyl)-8-fluoro-3-((1S,2S)-2-hydroxycyclopentyl)-7-methyl-2,3-dihydro-4H-1,3-benzoxazin-4-one]",105%,4 nM,–,–,–
"CCc1cc2c(cc1Cc1ccc(-n3cccn3)cc1)C(=O)N([C@H]1COCC[C@@H]1O)CO2 [Example 107, 1,5-anhydro-2,4-dideoxy-2-(7-ethyl-4-oxo-6-(4-(1H-pyrazol-1-yl)benzyl)-2H-1,3-benzoxazin-3(4H)-yl)-L-threo-pentitol]",99%,5.5 nM,–,–,–
"Cc1c(Cc2ccc(-c3ccn(C)n3)cc2)cc2c(c1F)OCN([C@H]1COCC[C@@H]1O)C2=O [Example 108, 1,5-anhydro-2,4-dideoxy-2-(8-fluoro-7-methyl-6-(4-(1-methyl-1H-pyrazol-3-yl)benzyl)-4-oxo-2H-1,3-benzoxazin-3(4H)-yl)-L-threo-pentitol]",99%,5.3 nM,–,–,–
"C#Cc1ccc(Cc2cc3c(c(C)c2C)OCN([C@H]2COCC[C@@H]2O)C3=O)cn1 [Example 112, 1,5-anhydro-2,4-dideoxy-2-(6-((6-ethynylpyridine-3-yl)methyl)-7,8-dimethyl-4-oxo-2H-1,3-benzoxazin-3(4H)-yl)-L-threo-pentitol]",99%,9.1 nM,–,–,–
"Cc1c(Cc2ccc(-n3nccn3)cc2)cc2c(c1C)OCN([C@H]1COCC[C@@H]1O)C2=O [Example 142, 1,5-anhydro-2,4-dideoxy-2-(7,8-dimethyl-4-oxo-6-(4-(2H-1,2,3-triazol-2-yl)benzyl)-2H-1,3-benzoxazin-3(4H)-yl)-L-threo-pentitol]",99%,38 nM,–,–,–
"Cc1c(Cc2ccc(-c3ccn(C)n3)nc2)cc2c(c1Cl)OCN([C@H]1CCC[C@@H]1O)C2=O [Example 99, 8-chloro-3-((1S,2S)-2-hydroxycyclopentyl)-7-methyl-6-((6-(1-methyl-1H-pyrazol-3-yl)pyridin-3-yl)methyl)-2,3-dihydro-4H-1,3-benzoxazin-4-one]",97%,2.9 nM,–,–,–
"Cc1nn(C)cc1-c1ccc(Cc2cc3c(c(F)c2C)OCN([C@H]2CCC[C@@H]2O)C3=O)cn1 [Example 93, 6-((6-(1,3-dimethyl-1H-pyrazol-4-yl)pyridin-3-yl)methyl)-8-fluoro-3-((1S,2S)-2-hydroxycyclopentyl)-7-methyl-2,3-dihydro-4H-1,3-benzoxazin-4-one]",103%,4.6 nM,–,–,–
"Cc1cc2c(cc1Cc1ccc(-n3cccn3)nc1)C(=O)N([C@H]1CCCC[C@@H]1O)CO2 (single isomer, unassigned) [Example 95]",102%,13 nM,–,–,–
"O=C1c2cc(Cc3ccc(Cl)nc3)c3ccccc3c2OCN1[C@H]1CCCC[C@@H]1O (relative stereo) [Example 56, 6-((6-chloropyridin-3-yl)methyl)-3-(trans-2-hydroxycyclohexyl)-2,3-dihydro-4H-naphtho[2,1-e][1,3]oxazin-4-one]",–,–,109%,16 nM,–
"Cc1ccc(Cc2cc3c(c4ccccc24)OCN([C@H]2COCC[C@@H]2O)C3=O)cn1 [Example 133, 1,5-anhydro-2,4-dideoxy-2-(6-((6-methylpyridin-3-yl)methyl)-4-oxo-2H-naphtho[2,1-e][1,3]oxazin-3(4H)-yl)-L-threo-pentitol]",–,–,91%,3.6 nM,–
"O=C1c2cc(CN3CCC(F)(F)CC3)c3ccccc3c2OCN1[C@H]1CCC[C@@H]1O [Example 21, 6-((4,4-difluoropiperidin-1-yl)methyl)-3-((1S,2S)-2-hydroxycyclopentyl)-2,3-dihydro-4H-naphtho[2,1-e][1,3]oxazin-4-one]",–,–,95%,16 nM,–
"Cn1cc(-c2ccc(Cc3cc4c(c5ccccc35)OCNC4=O)cn2)cn1 [Example 47, 6-((6-(1-methyl-1H-pyrazol-4-yl)pyridin-3-yl)methyl)-2,3-dihydro-4H-naphtho[2,1-e][1,3]oxazin-4-one]",–,–,110%,5.3 nM,–
"Cc1c(Cc2ccc(Cl)nc2)cc2c(c1C)OCN([C@H]1COCC[C@@H]1O)C2=O [Example 10, 1,5-anhydro-2-(6-((6-chloropyridin-3-yl)methyl)-7,8-dimethyl-4-oxo-2H-1,3-benzoxazin-3(4H)-yl)-2,4-dideoxy-L-threo-pentitol]",–,–,109%,9.1 nM,–
"Cc1c(Cc2ccc(-n3cccn3)cc2)cc2c(c1C)OCN([C@H]1CCCC[C@@H]1O)C2=O (relative stereo) [Example 53, 3-(trans-2-hydroxycyclohexyl)-7,8-dimethyl-6-(4-(1H-pyrazol-1-yl)benzyl)-2,3-dihydro-4H-1,3-benzoxazin-4-one]",–,–,96%,11 nM,–
"O=C1c2cc(Cc3ccc(Cl)nc3)c3ccccc3c2OCN1CC1CCCO1 (centres unmarked) [Example 76, 6-((6-chloropyridin-3-yl)methyl)-3-(tetrahydrofuran-2-ylmethyl)-2,3-dihydro-4H-naphtho[2,1-e][1,3]oxazin-4-one]",–,–,93%,63 nM,–
"Cc1ccc(Cc2cc3c(c(C)c2C)OCN([C@H]2CCC[C@@H]2O)C3=O)cn1 [Example 26, 3-((1S,2S)-2-hydroxycyclopentyl)-7,8-dimethyl-6-((6-methylpyridin-3-yl)methyl)-2,3-dihydro-4H-1,3-benzoxazin-4-one monohydrochloride]",–,–,–,5.4 nM,119%

# Reference: US10323027B2, “2,3-dihydro-4H-1,3-benzoxazin-4-one derivatives as modulators of cholinergic muscarinic M1 receptor” (Takeda Pharmaceutical Company Limited, priority 2015, dated 2019)
